pIC50: −log10 of the molar value.

In one data set the test system is Plasmodium falciparum. Description: Antiplasmodial activity against Plasmodium falciparum W2 assessed as picogreen-DNA intercalation by microfluorimetric assay. In kind it is functional, organism-based.
Data set [1] is described as follows: Cytotoxicity against human NCI-H460 cells assessed as cell viability at 9 uM after 48 hrs by MTT assay. It is filed as cell-based. Conditions: read-out: Activity.
Data set [2] in a line: Cytotoxicity against human NCI-H460 cells assessed as cell viability at 55 uM after 48 hrs by MTT assay. Conditions: read-out: Activity. In kind it is cell-based.
For data set [3], the target named is T1, NAD-dependent protein deacetylase sirtuin-2 (Homo sapiens) (UniProt Q8IXJ6).
T1 sequence (whole entry): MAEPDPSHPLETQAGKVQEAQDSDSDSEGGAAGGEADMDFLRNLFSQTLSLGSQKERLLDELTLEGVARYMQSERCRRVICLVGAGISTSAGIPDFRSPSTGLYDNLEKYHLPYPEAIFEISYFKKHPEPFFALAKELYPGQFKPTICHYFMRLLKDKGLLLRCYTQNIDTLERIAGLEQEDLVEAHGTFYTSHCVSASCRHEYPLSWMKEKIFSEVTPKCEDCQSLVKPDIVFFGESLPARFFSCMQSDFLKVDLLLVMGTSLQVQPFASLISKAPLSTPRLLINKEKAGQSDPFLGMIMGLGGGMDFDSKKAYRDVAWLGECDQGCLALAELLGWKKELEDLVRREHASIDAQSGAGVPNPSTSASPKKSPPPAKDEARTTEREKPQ
Description: Inhibition of SIRT2 at 50 uM.

In data set [4] the target is T1, NAD-dependent protein deacetylase sirtuin-2 (Homo sapiens). Description: Inhibition of SIRT2.

`CCCCCCCCC[C@@]1(CO)CC[C@@H](C)C(=O)O[C@@](CO)(CCCCCCCCC)CC[C@@H](C)C(=O)O1`: in the data set on Plasmodium falciparum, the negative logarithm of the IC50 (pIC50) was 4.72. Besides, the viability at 48 h, 9 µM in data set [1] was 110%. For the same compound, the viability at 48 h, 55 µM in data set [2] stood at 10%. The inhibition in data set [3] is 30%.

For the compound `CCCCCCCCCCC[C@]1(CO)CCCC(=O)O[C@](CO)(CCCCCCCCCCC)CCCC(=O)O1`, in data set [4], the INH was 0.176 µM.
